Our source for the Activity values is ChEMBL document CHEMBL1153889, “Psammaplin A as a general activator of cell-based signaling assays via HDAC inhibition and studies on some bromotyrosine derivatives” (Bioorg Med Chem, 2009).

SMILES strings stand for the structures. Activity calls are given as the source filed them. No cut-off for these calls is given here.

For assay [1], the target named is Protein Wnt-3a (Mus musculus) (UniProt P27467). Put plainly: Activation of mouse Wnt3a signaling expressed in HEK293 STF cells assessed as increase in transcriptional activity after 24 hrs by luciferase reporter gene-based lactate dehydrogenase assay. In kind it is cell-based.
Chain of Protein Wnt-3a (Mus musculus) (P27467 whole entry): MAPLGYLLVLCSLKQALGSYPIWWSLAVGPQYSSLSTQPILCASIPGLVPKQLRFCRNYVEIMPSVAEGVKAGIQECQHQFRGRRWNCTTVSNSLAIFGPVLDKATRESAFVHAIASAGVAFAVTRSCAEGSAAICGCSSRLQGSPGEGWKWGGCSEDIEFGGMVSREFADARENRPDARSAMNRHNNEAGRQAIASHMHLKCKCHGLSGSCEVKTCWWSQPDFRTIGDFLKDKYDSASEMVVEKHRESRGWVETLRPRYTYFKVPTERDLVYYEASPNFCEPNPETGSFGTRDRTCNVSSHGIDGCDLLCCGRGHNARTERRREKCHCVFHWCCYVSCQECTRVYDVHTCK
In assay [2] the test system is HEK293. In words: Activation of Neuropeptide S receptor I107 mutant expressed in HEK293 cells assessed as increase in transcriptional activity after 24 hrs by luciferase reporter gene-based lactate dehydrogenase assay. Format: cell-based.

As for `O=C(CCCCCCC(=O)Nc1ccccc1)NO`, the outcome in assay [1] was Active. With `O=C(NCCSSCCNC(=O)/C(Cc1ccc(O)c(Br)c1)=N/O)/C(Cc1ccc(O)c(Br)c1)=N/O`, the result in assay [1] and in assay [2] was Active. For `CC(/C=C/C(=O)NO)=C\[C@@H](C)C(=O)c1ccc(N(C)C)cc1`, the result in assay [1] was Active.

Take `Nc1ccccc1NC(=O)c1ccc(CNC(=O)OCc2cccnc2)cc1`: in assay [1], the result was Active.
